Columns and labels:
[1] = tested on: female BALB/C mice (雌性BALB/C小鼠); test: In vivo expression of Fluc mRNA-LNP, live fluorescence imaging (Example 7); design: species or system mouse; conditions: for fluorescence intensity (total luminous flux) / course of fluorescence intensity at 24 h (in words): mice, 20 μg Fluc mRNA, intramuscular; for fluorescence intensity (total luminous flux): 6 h, order of magnitude; for fluorescence intensity of expressed protein compared with U-102, U-104, U-106, U-108, U-110, U-112 (in words): mRNA-LNP, versus U-102, U-104, U-106, U-108, U-110, U-112
[2] = tested on: human umbilical vein endothelial cells (人脐静脉内皮细胞, HUVEC); test: In vitro expression of VEGFa mRNA-LNP, ELISA of VEGFa protein (Example 6); format: cell-based; conditions: mRNA 1 μg, 24 h
[3] = tested on: HEK293T cells (HEK293T细胞); format: cell-based; conditions: RBD mRNA-LNP, mRNA 1 μg, 24 h, cell supernatant

SMILES | fluorescence intensity (total luminous flux) [1] | course of fluorescence intensity at 24 h (in words) [1] | VEGFa protein concentration [2] [ng/mL] | RBD protein concentration [3] [ng/mL] | fluorescence intensity of expressed protein compared with U-102, U-104, U-106, U-108, U-110, U-112 (in words) [1]
CCCCCCCCC(CCCCCC)C(=O)OCCCCCCN(CCCCO)CCCCCCOC(=O)C(CCCCCC)CCCCCCCC (stereo not shown) [ALC-0315, ((4-羟基丁基)氮杂二基)双(己烷-6,1-二基)双(2-己基癸酸酯), reference compound] | ~10^7 p/s | 开始减弱 | 7.9 | 8.5 | 
CCCCCCCCCCCOC(=O)CCCCCN(CCO)CCCCCCCC(=O)OC(CCCCCCCC)CCCCCCCC [SM-102, 8-[(2-羟乙基)[6-氧代-6-(十一烷基氧基)己基]氨基]辛酸1-辛基壬基酯, reference compound] | ~10^7 p/s | 开始减弱 | 11.3 | 10.2 | 
CCCCCCCCC(CCCCCC)COC(=O)CCCCCN(CCCCCC(=O)OCC(CCCCCC)CCCCCCCC)CCCN(CCO)CCO (stereo not shown) [U-101, 双(2-己基癸基)-6,6'-((3-(双(2-羟乙基)氨基)丙基)氮杂二烷基)二己酸酯] |  |  | 52.8 | 50.6 | 更高一些
CCCCCCCCC(CCCCCC)COC(=O)CCCCCCN(CCCCCCC(=O)OCC(CCCCCC)CCCCCCCC)CCN(CCO)CCO (stereo not shown) [U-102, 双(2-己基癸基)-7,7'-((2-(双(2-羟乙基)氨基)乙基)氮杂二烷基)二庚酸酯] |  |  | 48.7 | 49.3 | 
CCCCCCCCCCCCOC(=O)CCCCCN(CCCCCC(=O)OCC(CCCCCC)CCCCCCCC)CCCN(CCO)CCO (stereo not shown) [U-103, O-2-己基癸基-O’-十二烷基-6,6'-((3-(双(2-羟乙基)氨基)丙基)氮杂二烷基)二己酸酯] |  |  | 49.6 | 49.6 | 更高一些
CCCCCCCCCCCCOC(=O)CCCCCCN(CCCCCCC(=O)OCC(CCCCCC)CCCCCCCC)CCN(CCO)CCO (stereo not shown) [U-104, O-2-己基癸基-O’-十二烷基-6,6'-((2-(双(2-羟乙基)氨基)乙基)氮杂二烷基)二庚酸酯] |  |  | 47.9 | 48.7 | 
CCCCCCCCC(CCCCCCCC)OC(=O)CCCCCN(CCCCCC(=O)OC(CCCCCCCC)CCCCCCCC)CCCN(CCO)CCO [U-105, 双(1-辛基壬基)-6,6'-((3-(双(2-羟乙基)氨基)丙基)氮杂二烷基)二己酸酯] |  |  | 48.3 | 48.4 | 更高一些
CCCCCCCCC(CCCCCCCC)OC(=O)CCCCCCN(CCCCCCC(=O)OC(CCCCCCCC)CCCCCCCC)CCN(CCO)CCO [U-106, 双(1-辛基壬基)-7,7'-((2-(双(2-羟乙基)氨基)乙基)氮杂二烷基)二庚酸酯] |  |  | 45.5 | 47.8 | 
CCCCCCCCCCCCOC(=O)CCCCCN(CCCCCC(=O)OC(CCCCCCCC)CCCCCCCC)CCCN(CCO)CCO [U-107, O-1-辛基壬基-O’-十二烷基-6,6'-((3-(双(2-羟乙基)氨基)丙基)氮杂二烷基)二己酸酯] |  |  | 47.7 | 47.6 | 更高一些
CCCCCCCCCCCCOC(=O)CCCCCCN(CCCCCCC(=O)OC(CCCCCCCC)CCCCCCCC)CCN(CCO)CCO [U-108, O-1-辛基壬基-O’-十二烷基-7,7'-((2-(双(2-羟乙基)氨基)乙基)氮杂二烷基)二庚酸酯] |  |  | 45.3 | 45.7 | 
CCCCCCCC(CCCCCCC)OC(=O)CCCCCN(CCCCCC(=O)OC(CCCCCCC)CCCCCCC)CCCN(CCO)CCO [U-109, 双(1-庚基辛基)-6,6'-((3-(双(2-羟乙基)氨基)丙基)氮杂二烷基)二己酸酯] |  |  | 39.2 | 43.2 | 更高一些
CCCCCCCC(CCCCCCC)OC(=O)CCCCCCN(CCCCCCC(=O)OC(CCCCCCC)CCCCCCC)CCN(CCO)CCO [U-110, 双(1-庚基辛基)-7,7'-((2-(双(2-羟乙基)氨基)乙基)氮杂二烷基)二庚酸酯] |  |  | 36.8 | 41.6 | 
CCCCCCCCCCCCOC(=O)CCCCCN(CCCCCC(=O)OC(CCCCCCC)CCCCCCC)CCCN(CCO)CCO [U-111, O-1-庚基辛基-O’-十二烷基-6,6'-((3-(双(2-羟乙基)氨基)丙基)氮杂二烷基)二己酸酯] |  |  | 41.7 | 44.3 | 更高一些
CCCCCCCCCCCCOC(=O)CCCCCCN(CCCCCCC(=O)OC(CCCCCCC)CCCCCCC)CCN(CCO)CCO [U-112, O-1-庚基辛基-O’-十二烷基-7,7'-((2-(双(2-羟乙基)氨基)乙基)氮杂二烷基)二庚酸酯] |  |  | 36.1 | 42.8 | 
CCCCCCCCC(CCCCCC)COC(=O)CCCCCN(CCCCCC(=O)OCC(CCCCCC)CCCCCCCC)CCN(CCO)CCO (stereo not shown) [UR-301, 双(2-己基癸基)-6,6'-((2-(双(2-羟乙基)氨基)乙基)氮杂二烷基)二己酸酯] |  |  | 4.8 | 6.8 | 
CCCCCCCCC(CCCCCC)COC(=O)CCCCCCN(CCCCCCC(=O)OCC(CCCCCC)CCCCCCCC)CCCN(CCO)CCO (stereo not shown) [UR-302, 双(2-己基癸基)-7,7'-((3-(双(2-羟乙基)氨基)丙基)氮杂二烷基)二庚酸酯] |  |  | 3.7 | 4.5 | 
CCCCCCCCC(CCCCCC)COC(=O)CCCCCCCN(CCCCCCCC(=O)OCC(CCCCCC)CCCCCCCC)CCN(CCO)CCO (stereo not shown) [UR-303, 双(2-己基癸基)-8,8'-((2-(双(2-羟乙基)氨基)乙基)氮杂二烷基)二辛酸酯] |  |  | 6.2 | 6.4 | 
CCCCCCCCC(CCCCCC)COC(=O)CCCCN(CCCCC(=O)OCC(CCCCCC)CCCCCCCC)CCCN(CCO)CCO (stereo not shown) [UR-304, 双(2-己基癸基)-5,5'-((3-(双(2-羟乙基)氨基)丙基)氮杂二烷基)二戊酸酯] |  |  | 4.9 | 5.4 | 

Reference: patent CN117003659A, “一种可离子化脂质或其药学上可接受的盐、组合物和应用” (priority 2023, dated 2023)
